Test results from PMC6891286, “Towards the Development of an In vivo Chemical Probe for Cyclin G Associated Kinase (GAK)” (Molecules, 2019).

Experiments:
GAK [1] = target: T1, GAK (Homo sapiens, UniProt O14976); conditions: nanoBRET; read-out: Live Cell GAK IC50; cited from earlier work
T1 sequence (O14976 1-1311): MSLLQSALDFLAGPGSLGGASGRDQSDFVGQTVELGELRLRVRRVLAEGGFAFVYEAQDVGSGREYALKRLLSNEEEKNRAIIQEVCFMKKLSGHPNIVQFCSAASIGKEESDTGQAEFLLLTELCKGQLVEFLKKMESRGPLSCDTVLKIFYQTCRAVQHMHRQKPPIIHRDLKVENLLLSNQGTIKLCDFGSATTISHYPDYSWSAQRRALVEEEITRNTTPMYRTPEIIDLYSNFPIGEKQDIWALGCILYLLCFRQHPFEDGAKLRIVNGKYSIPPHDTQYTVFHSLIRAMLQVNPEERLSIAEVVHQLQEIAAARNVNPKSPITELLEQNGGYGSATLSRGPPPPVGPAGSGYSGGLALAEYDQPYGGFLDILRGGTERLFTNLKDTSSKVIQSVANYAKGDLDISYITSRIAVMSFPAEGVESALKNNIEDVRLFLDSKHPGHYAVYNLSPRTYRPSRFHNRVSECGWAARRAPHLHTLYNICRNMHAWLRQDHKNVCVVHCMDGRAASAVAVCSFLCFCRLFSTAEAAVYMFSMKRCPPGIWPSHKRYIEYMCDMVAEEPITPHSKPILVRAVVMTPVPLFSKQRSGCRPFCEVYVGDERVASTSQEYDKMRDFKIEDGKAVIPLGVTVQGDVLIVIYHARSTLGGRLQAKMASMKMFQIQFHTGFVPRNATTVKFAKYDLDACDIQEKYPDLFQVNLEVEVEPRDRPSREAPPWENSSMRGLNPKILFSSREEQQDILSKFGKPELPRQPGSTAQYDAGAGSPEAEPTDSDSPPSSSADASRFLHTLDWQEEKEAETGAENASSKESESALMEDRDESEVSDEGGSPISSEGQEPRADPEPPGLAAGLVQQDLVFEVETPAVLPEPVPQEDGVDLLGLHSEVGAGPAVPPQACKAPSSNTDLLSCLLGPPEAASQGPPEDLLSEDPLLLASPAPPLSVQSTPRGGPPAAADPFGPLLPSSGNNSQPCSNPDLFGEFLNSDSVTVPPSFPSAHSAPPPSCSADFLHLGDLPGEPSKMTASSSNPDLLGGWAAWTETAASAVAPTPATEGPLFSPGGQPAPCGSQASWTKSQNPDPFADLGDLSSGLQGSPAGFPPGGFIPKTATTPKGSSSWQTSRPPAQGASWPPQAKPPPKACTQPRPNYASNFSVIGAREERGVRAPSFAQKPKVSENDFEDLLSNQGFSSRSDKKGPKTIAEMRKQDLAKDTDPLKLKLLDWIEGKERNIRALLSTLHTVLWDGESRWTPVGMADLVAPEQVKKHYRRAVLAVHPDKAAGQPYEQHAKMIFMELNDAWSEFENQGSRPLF

GAK [2] = target: T1, GAK; conditions: TR-FRET assay; read-out: Biochemical GAK Ki; cited from earlier work
[3] = pharmacokinetic profiling in mice, oral dosing; type: in vivo; conditions: C57BL/6 mice, 10 mg/kg po
Protocol: Pharmacokinetic profiling was performed by SAI Life Sciences (Hyderabad, India). […] Prior approval of the Institutional Animal Ethics Committee (IAEC) was obtained before initiation of the study. Healthy male C57BL/6 mice (8–12 weeks old) weighing between 20 and 35 g were procured from (Envigo Research Private Ltd., City, Hyderabad, India). Three mice were housed in each cage. […] Temperature and humidity were recorded by an automatically controlled data logger system. All animals were provided a laboratory rodent diet (Envigo Research Private Ltd., Hyderabad, India). Reverse osmosis water treated with ultraviolet light was provided ad libitum. Eighteen male mice were weighed and divided in to two groups (Group 1 and Group 2), with nine mice in each group. […] The dosing volume administered was 10 mL/kg for the oral route. […] Plasma samples were separated by centrifugation at 4000 rpm for 10 min and stored below −70 °C until bioanalysis. […] The plasma concentration-time data were then used for the pharmacokinetic analysis. A non-compartmental analysis module in Phoenix WinNonlin (Version 6.3, Certara USA Inc., Raleigh, NC, USA) was used to assess the pharmacokinetic parameters. Maximum concentration (Cmax) and time to reach the maximum concentration (Tmax) were the observed values. The areas under the concentration time curve (AUClast and AUCinf) were calculated by linear trapezoidal rule.

FLT3(ITD,D835V) = experiment: KINOMEscan; type: binding, human; conditions: 35 at 1 µM; read-out: % inhibition
Protocol: (§1) KinomeScan Assay on 35 was performed as previously described at EuroFins DiscoverX (Fremont, CA, USA).

FLT3(ITD,F691L) = experiment: KINOMEscan; type: binding, human; conditions: 35 at 1 µM; read-out: % inhibition
Protocol: as §1

EGFR(L747-T751del,Sins) = experiment: KINOMEscan; type: binding, human; conditions: 35 at 1 µM; read-out: % inhibition
Protocol: as §1

FLT3(ITD) = experiment: KINOMEscan; type: binding, human; conditions: 35 at 1 µM; read-out: % inhibition
Protocol: as §1

GAK [4] = target: T1, GAK; experiment: KINOMEscan; type: binding; set-up: purchased Eurofins DiscoverX (KINOMEscan)
Protocol: as §1

STK16 = STK16 (Homo sapiens, UniProt O75716); experiment: KINOMEscan; type: binding; set-up: purchased Eurofins DiscoverX (KINOMEscan); conditions: 35 at 1 µM; read-out: % inhibition
Sequence of STK16 (O75716 whole entry): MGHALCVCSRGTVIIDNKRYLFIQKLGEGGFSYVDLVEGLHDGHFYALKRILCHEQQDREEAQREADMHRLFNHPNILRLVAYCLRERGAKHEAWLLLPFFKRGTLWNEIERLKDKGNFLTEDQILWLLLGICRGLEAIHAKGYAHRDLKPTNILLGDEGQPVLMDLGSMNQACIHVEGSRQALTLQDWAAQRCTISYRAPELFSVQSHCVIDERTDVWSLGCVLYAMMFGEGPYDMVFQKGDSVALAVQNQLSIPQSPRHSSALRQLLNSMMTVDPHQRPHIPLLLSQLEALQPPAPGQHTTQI
Protocol: as §1

AAK1 = AAK1 (Homo sapiens, UniProt Q2M2I8); experiment: KINOMEscan; type: binding; set-up: purchased Eurofins DiscoverX (KINOMEscan); conditions: 35 at 1 µM; read-out: % inhibition
Sequence of AAK1 (Q2M2I8 whole entry): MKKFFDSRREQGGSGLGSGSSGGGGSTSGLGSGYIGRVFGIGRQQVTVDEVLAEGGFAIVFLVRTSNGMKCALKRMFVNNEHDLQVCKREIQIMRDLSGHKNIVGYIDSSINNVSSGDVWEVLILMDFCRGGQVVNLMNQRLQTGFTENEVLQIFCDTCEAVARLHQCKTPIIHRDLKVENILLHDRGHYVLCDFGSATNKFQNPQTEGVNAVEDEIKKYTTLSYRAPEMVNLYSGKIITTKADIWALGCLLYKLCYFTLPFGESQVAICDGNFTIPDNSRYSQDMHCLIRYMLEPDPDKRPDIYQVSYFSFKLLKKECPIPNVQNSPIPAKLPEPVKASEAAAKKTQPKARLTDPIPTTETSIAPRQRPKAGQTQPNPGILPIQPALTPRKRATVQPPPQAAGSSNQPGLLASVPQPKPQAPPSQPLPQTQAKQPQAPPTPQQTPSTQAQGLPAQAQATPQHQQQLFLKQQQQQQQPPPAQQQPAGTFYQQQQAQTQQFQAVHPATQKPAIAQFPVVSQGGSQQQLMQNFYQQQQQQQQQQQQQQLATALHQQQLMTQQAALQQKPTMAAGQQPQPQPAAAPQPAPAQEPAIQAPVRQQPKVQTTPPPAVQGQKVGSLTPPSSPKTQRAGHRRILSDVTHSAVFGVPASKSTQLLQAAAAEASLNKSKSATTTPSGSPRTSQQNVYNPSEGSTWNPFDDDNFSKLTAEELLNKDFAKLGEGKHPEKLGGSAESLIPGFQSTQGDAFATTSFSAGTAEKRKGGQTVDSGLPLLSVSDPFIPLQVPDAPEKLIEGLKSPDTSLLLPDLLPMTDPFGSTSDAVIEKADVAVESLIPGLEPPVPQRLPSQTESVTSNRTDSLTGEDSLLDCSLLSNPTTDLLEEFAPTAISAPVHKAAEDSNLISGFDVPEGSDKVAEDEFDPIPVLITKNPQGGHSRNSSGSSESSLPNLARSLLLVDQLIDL
Protocol: as §1

[5] = male, C57BL/6, mouse, plasma, po, 10 mg/kg, 2 h pretreat 50 mpk ABT
[6] = male, C57BL/6, mouse, plasma, po, 10 mg/kg, without ABT

Compound | IC50 (GAK [1]) | Ki (GAK [2]) | fold higher exposure with ABT pretreatment ([3]; 2 h pre-treatment with 50 mg/kg ABT vs without) | time plasma concentration sustained at 2-fold above the cellular IC50 ([3]; pretreatment with ABT) | AUC(0-inf) [3, 5] | Tmax [3, 5] | Cmax ([3]; male, C57BL/6, mouse, plasma, po, 10 mg/kg, 2 h pretreat 50 mpk ABT, read-out: Cmax) | AUC(0-inf) [3, 6] | Tmax [3, 6] | half-life ([3]; male, mouse, plasma, without ABT, read-out: T1/2 in mice) | activity (FLT3(ITD,D835V)) | activity (FLT3(ITD,F691L)) | activity (EGFR(L747-T751del,Sins)) | activity (FLT3(ITD)) | activity at 1 µM (GAK [4]; 35 at 1 µM, read-out: % inhibition) | inhibition at 1 µM (GAK [4]; KinomeScan, screened at 1 μM, read-out: kinases inhibited at 1 μM: GAK) | activity at 1 µM (STK16) | activity at 1 µM (AAK1)
COc1cc2nccc(Nc3cc(OC)c(OC)c(OC)c3)c2cc1OC [Compound 8] | 0.025 µM | 0.00054 µM | 8 fold | > 8 h | 569 ng·h/mL | 2 h | 107 ng/mL | 71 ng·h/mL | 1 h | < 1 h |  |  |  |  |  |  |  | 
Brc1ccc2nccc(Nc3ccc4cn[nH]c4c3)c2c1 [Compound 35, 6-Bromo-N-(1H-indazol-6-yl)quinolin-4-amine] |  |  |  |  |  |  |  |  |  |  | 100% | 100% | 100% | 97% | 10% | 90% | 98% | 100%
